Experimental data published in US20130150434A1 (SOMAXON PHARMACEUTICALS, INC., priority 2006, published 2013).

What was measured:
[1] = system: chronic primary insomnia patients with sleep maintenance difficulties; assay: Phase III study of doxepin, subjective assessments by morning questionnaire (sWASO, LSO, sTST); details: ITT; for LSO (subjective latency to sleep onset), Mean (SD) / sTST (subjective total sleep time), Mean (SD) / sTST, Median / sWASO (subjective wake after sleep onset), Mean (SD): Baseline (mean of Days −5 and −4)
Text: Patients with at least a 3-month history of primary insomnia, according to Diagnostic and Statistical Manual of Mental Disorders, Fourth Edition Text Revision (DSM-IV-TR)-defined primary insomnia were enrolled.
After the PSG Screening and Baseline periods, patients began a 35-day double-blind treatment period during which they were given study drug supplies at each scheduled visit (Visits 4, 5, and 6). The scheduled study visits consisted of two consecutive nights of 8-hour PSG recording in the sleep center and next day assessments to assess sedative efficacy. Patients were asked to complete hangover/residual effects assessments, morning and evening questionnaires, and the Benzodiazepine Withdrawal Symptom Questionnaire (BWSQ) at each of these visits.
Subjective Variables: Subjective assessments included data obtained on Days 2, 16, and 30, and included subjective TST (sTST), subjective WASO (sWASO), latency to sleep onset (LSO), subjective NAASO (sNAASO), and sleep quality (all assessed by a morning questionnaire), daytime functioning (assessed by an evening questionnaire), average nightly sTST during at-home administration (5 days before the PSG visit), CGI rating scale for Severity and Therapeutic Effect completed by the clinician and patient, and a measure of insomnia severity (assessed by ISI).
Methods used to analyze other endpoints were the same as those used to analyze WASO. For LPS, latency to REM sleep, latency to Stage 2 sleep, and LSO, data were expected to be log-normally distributed and were analyzed using log-transformed values (base 10). The safety data were analyzed primarily using descriptive statistical methods.
All efficacy analyses were performed on the Intent-to-treat (ITT) analysis set. […] Data were analyzed as randomized and based on observed cases.

[2] = system: chronic primary insomnia patients with sleep maintenance difficulties; assay: Phase III study of doxepin, rebound insomnia by PSG during the 2-day discontinuation period; assay type: in vivo, human; details: for WASO (rebound insomnia analysis), Median: Baseline = worst WASO value of Nights −6 and −5; for WASO (rebound insomnia analysis), Mean (SD): Baseline = worst WASO value of Nights −6 and −5 from Visit 3
Text: The term “rebound insomnia” refers to the common occurrence that a person may have more trouble sleeping the first few nights after a sedative medicine is stopped than before starting the medicine. After more than a few days' use, discontinuing a hypnotic or sedative medication can make the original sleep problem worse and can cause an increase anxiety. Rebound insomnia may be measured as the mean change in mean wake time after sleep onset (WASO) from baseline to the first night of discontinuation.
Patients were discharged from the sleep center after all final study-related procedures had been completed on the Final Study Day (Day 38, Early Termination [ET]).
Safety: Safety was assessed based on AEs, clinical laboratory tests (hematology, serum chemistry, and urinalysis), vital signs, physical examinations, neurological assessments, 12-lead ECGs, and ratings of hangover/residual effects (digit-symbol substitution test (DSST), symbol copying test (SCT), and the visual analog scale (VAS) for sleepiness), assessment of rebound insomnia using PSG recordings during the discontinuation period, and withdrawal symptoms using the benzodiazepine withdrawal symptom questionnaire (BWSQ).

[3] = Doxepin HCl 3 mg group, Night 36, N = 67 evaluable
[4] = Doxepin HCl 3 mg group, Night 36 and Night 37, N = 67 evaluable
[5] = Doxepin HCl 3 mg group, Visit 7, Night 37 (discontinuation)
[6] = Doxepin HCl 3 mg group, discontinuation
[7] = Doxepin HCl 6 mg group, Night 36, N = 68 evaluable

CN(C)CCC=C1c2ccccc2COc2ccccc21 [Doxepin, 11-(3-dimethylaminopropylidene)-6,11-dihydrodibenzo (b,e)oxepin]
LSO (subjective latency to sleep onset), Mean (SD) ([1]; Doxepin HCl 3 mg group): 61.4 (39.43) minutes | sTST (subjective total sleep time), Mean (SD) ([1]; Doxepin HCl 3 mg group): 330.0 (63.23) minutes | sTST, Median ([1]; Doxepin HCl 3 mg group): 330.0 min | sTST, Mean (SD) ([1]; Doxepin HCl 3 mg, Visit 4, Day 2, p 0.0169 vs placebo): 361.8 (64.03) minutes | LSO, Mean (SD) ([1]; Doxepin HCl 3 mg, Visit 4, Day 2, p 0.2296 vs placebo): 50.3 (36.73) minutes | sTST, Mean (SD) ([1]; Doxepin HCl 3 mg, Visit 5, Day 16, p 0.3260 vs placebo): 361.0 (67.22) minutes | LSO, Mean (SD) ([1]; Doxepin HCl 3 mg, Visit 5, Day 16, p 0.9838 vs placebo): 52.9 (35.17) minutes | LSO, Mean (SD) ([1]; Doxepin HCl 3 mg, Visit 6, Day 30, p 0.3567 vs placebo): 48.9 (34.71) minutes | sTST, Mean (SD) ([1]; Doxepin HCl 3 mg, Visit 6, Day 30, p 0.9972 vs placebo): 360.7 (68.72) minutes | LSO (subjective latency to sleep onset), Mean (SD) ([1]; Doxepin HCl 6 mg group): 64.0 (43.45) minutes | sTST (subjective total sleep time), Mean (SD) ([1]; Doxepin HCl 6 mg group): 339.3 (61.45) minutes | sTST, Median ([1]; Doxepin HCl 6 mg group): 330.0 min | sTST, Mean (SD) ([1]; Doxepin HCl 6 mg, Visit 4, Day 2, p 0.0256 vs placebo): 369.0 (78.39) minutes | LSO, Mean (SD) ([1]; Doxepin HCl 6 mg, Visit 4, Day 2, p 0.0960 vs placebo): 55.7 (56.96) minutes | sTST, Mean (SD) ([1]; Doxepin HCl 6 mg, Visit 5, Day 16, p 0.1611 vs placebo): 371.5 (72.06) minutes | LSO, Mean (SD) ([1]; Doxepin HCl 6 mg, Visit 5, Day 16, p 0.2689 vs placebo): 48.7 (42.35) minutes | sTST, Mean (SD) ([1]; Doxepin HCl 6 mg, Visit 6, Day 30, p 0.6831 vs placebo): 373.0 (75.30) minutes | LSO, Mean (SD) ([1]; Doxepin HCl 6 mg, Visit 6, Day 30, p 0.8242 vs placebo): 48.3 (47.40) minutes | sWASO (subjective wake after sleep onset), Mean (SD) ([1]; doxepin 3 mg group): 80.6 (48.12) minutes | sWASO, Mean (SD) ([1]; doxepin 3 mg, Visit 4, Day 2, p 0.0005 vs placebo): 55.7 (39.81) minutes | sWASO, Mean (SD) ([1]; doxepin 3 mg, Visit 5, Day 16, p 0.2582 vs placebo): 59.0 (54.14) minutes | sWASO, Mean (SD) ([1]; doxepin 3 mg, Visit 6, Day 30, p 0.8958 vs placebo): 63.1 (47.24) minutes | sWASO (subjective wake after sleep onset), Mean (SD) ([1]; doxepin 6 mg group): 78.2 (43.06) minutes | sWASO, Mean (SD) ([1]; doxepin 6 mg, Visit 4, Day 2, p 0.0007 vs placebo): 54.9 (44.76) minutes | sWASO, Mean (SD) ([1]; doxepin 6 mg, Visit 5, Day 16, p 0.3357 vs placebo): 58.4 (49.09) minutes | sWASO, Mean (SD) ([1]; doxepin 6 mg, Visit 6, Day 30, p 0.8020 vs placebo): 58.2 (53.07) minutes | Rebound insomnia (mean change in mean WASO from baseline to the first night of discontinuation) ([2]; 3 mg and 6 mg, 2-day discontinuation period following abrupt discontinuation of 35 nights of treatment): no rebound insomnia | Largest percentage of patients experiencing rebound effects ([2]; 3 mg group at night 36, as measured by mean change in WASO): 15% | WASO (rebound insomnia analysis), Median ([2]; Doxepin HCl 3 mg group): 79.5 min | WASO (rebound insomnia analysis), Mean (SD) ([2]; Doxepin HCl 3 mg group): 83.5 (41.35) minutes | Rebound insomnia frequency: patients with LPS change from Baseline ≧20 minutes at Visit 7, count (%) [2, 3]: 7 (10%) | Rebound insomnia frequency: patients with TST change from Baseline ≦−30 minutes at Visit 7, count (%) [2, 3]: 9 (13%) | Rebound insomnia frequency: patients with WASO change from Baseline ≧35 minutes at Visit 7, count (%) [2, 3]: 10 (15%) | Rebound insomnia frequency: patients with LPS change from Baseline ≧20 minutes at Visit 7, count (%) [2, 4]: 3 (4%) | Rebound insomnia frequency: patients with TST change from Baseline ≦−30 minutes at Visit 7, count (%) [2, 4]: 3 (4%) | Rebound insomnia frequency: patients with WASO change from Baseline ≧35 minutes at Visit 7, count (%) [2, 4]: 1 (1%) | WASO, Median ([2]; Doxepin HCl 3 mg group, Visit 7, Night 36 (discontinuation)): 50.5 min | WASO, Mean (SD) ([2]; Doxepin HCl 3 mg group, Visit 7, Night 36 (discontinuation, single-blind placebo after 35 nights of treatment)): 65.8 (48.72) minutes | WASO, Mean (SD) [2, 5]: 58.4 (42.76) minutes | WASO, Median [2, 5]: 48.8 min | WASO, Change from Baseline to Visit 7, Night 36, Median [2, 6]: -22.0 min | WASO, Change from Baseline to Visit 7, Night 37, Median [2, 6]: -20.8 min | WASO, Change from Baseline to Visit 7, Night 36, Mean (SD) ([2]; Doxepin HCl 3 mg group, discontinuation, 95% CI (−30.28, −6.57)): −18.4 (48.60) minutes | WASO, Change from Baseline to Visit 7, Night 37, Mean (SD) ([2]; Doxepin HCl 3 mg group, discontinuation, 95% CI (−35.26, −14.11)): −24.7 (43.02) minutes | WASO (rebound insomnia analysis), Median ([2]; Doxepin HCl 6 mg group): 72.5 min | WASO (rebound insomnia analysis), Mean (SD) ([2]; Doxepin HCl 6 mg group): 78.4 (40.37) minutes | Rebound insomnia frequency: patients with LPS change from Baseline ≧20 minutes at Visit 7, count (%) [2, 7]: 8 (12%) | Rebound insomnia frequency: patients with TST change from Baseline ≦−30 minutes at Visit 7, count (%) [2, 7]: 6 (9%) | Rebound insomnia frequency: patients with WASO change from Baseline ≧35 minutes at Visit 7, count (%) [2, 7]: 7 (10%) | Rebound insomnia frequency: patients with LPS change from Baseline ≧20 minutes at Visit 7, count (%) ([2]; Doxepin HCl 6 mg group, Night 36 and Night 37, N = 68 evaluable): 2 (3%)
